Source: article PMC5190074, “BET inhibition as a new strategy for the treatment of gastric cancer” (Oncotarget, 2016)

Key:
BRDT(2) = molecular target: T1, BRDT(2) (Homo sapiens, UniProt Q58F21); assay: biochemical; set-up: thermal shift assay (real-time PCR machine), melting temperature shift of recombinant bromodomains at 2 uM protein
T1 construct: bromodomain 2
Protocol: (§1) The recombinant bromodomains at 2 μM were mixed with 10 μM inhibitors. The assays and data evaluation for melting temperatures were performed using a Real-Time PCR Mx3005p machine (Stratagene) and the protocols previously described. Experiments profiling the final compound (PNZ5) were performed in quadruplicates. […] Since its discovery in our own labs, similar inhibitors have also been disclosed by researchers at Boehringer Ingelheim [reference: patent, WO 2014/154760 [31]]. The inhibitor contains two possible acetyl-lysine mimetic moieties. In order to obtain molecular insights on the interaction of the developed inhibitor, the crystal structure of the first bromodomain of BRD4 in complex with PNZ5 was solved at 1.85 Å (Figure 2C and Supplementary Table 4, 5FBX.pdb). The inhibitor, coordinating residues and water molecules were well defined by the electron density. The dimethylisoxazole moiety mimicked the acetyl lysine side chain and formed two canonical hydrogen-bond interactions with Asn140 and water mediated hydrogen-bond with Tyr 97 (Figure 2C). The common network of waters within the binding site was also conserved in the BRD4(1)-PNZ5 complex. The compound was further stabilized by lipophilic interactions with residues forming the binding site Leu92, Leu94, Ile146. The [compound left out] substituent was well accommodated next to the WPF shelf, as well as the N1-methyl substituent that formed hydrophobic interactions with Trp81. The carbonyl on the isoindolinone established a water-mediated hydrogen bond with Lys91.

SMARCA2 = molecular target: T2, SMARCA2 (Homo sapiens, UniProt P51531); assay: biochemical; set-up: thermal shift assay (real-time PCR machine), melting temperature shift of recombinant bromodomains at 2 uM protein
T2 construct: bromodomain
Protocol: as §1

SP140 = molecular target: T3, SP140 (Homo sapiens, UniProt Q13342); assay: biochemical; set-up: thermal shift assay (real-time PCR machine), melting temperature shift of recombinant bromodomains at 2 uM protein
T3 construct: bromodomain
Protocol: as §1

BAZ2B = molecular target: T4, BAZ2B (Homo sapiens, UniProt Q9UIF8); assay: biochemical; set-up: thermal shift assay (real-time PCR machine), melting temperature shift of recombinant bromodomains at 2 uM protein
T4 construct: bromodomain
T4 sequence (Q9UIF8 whole entry): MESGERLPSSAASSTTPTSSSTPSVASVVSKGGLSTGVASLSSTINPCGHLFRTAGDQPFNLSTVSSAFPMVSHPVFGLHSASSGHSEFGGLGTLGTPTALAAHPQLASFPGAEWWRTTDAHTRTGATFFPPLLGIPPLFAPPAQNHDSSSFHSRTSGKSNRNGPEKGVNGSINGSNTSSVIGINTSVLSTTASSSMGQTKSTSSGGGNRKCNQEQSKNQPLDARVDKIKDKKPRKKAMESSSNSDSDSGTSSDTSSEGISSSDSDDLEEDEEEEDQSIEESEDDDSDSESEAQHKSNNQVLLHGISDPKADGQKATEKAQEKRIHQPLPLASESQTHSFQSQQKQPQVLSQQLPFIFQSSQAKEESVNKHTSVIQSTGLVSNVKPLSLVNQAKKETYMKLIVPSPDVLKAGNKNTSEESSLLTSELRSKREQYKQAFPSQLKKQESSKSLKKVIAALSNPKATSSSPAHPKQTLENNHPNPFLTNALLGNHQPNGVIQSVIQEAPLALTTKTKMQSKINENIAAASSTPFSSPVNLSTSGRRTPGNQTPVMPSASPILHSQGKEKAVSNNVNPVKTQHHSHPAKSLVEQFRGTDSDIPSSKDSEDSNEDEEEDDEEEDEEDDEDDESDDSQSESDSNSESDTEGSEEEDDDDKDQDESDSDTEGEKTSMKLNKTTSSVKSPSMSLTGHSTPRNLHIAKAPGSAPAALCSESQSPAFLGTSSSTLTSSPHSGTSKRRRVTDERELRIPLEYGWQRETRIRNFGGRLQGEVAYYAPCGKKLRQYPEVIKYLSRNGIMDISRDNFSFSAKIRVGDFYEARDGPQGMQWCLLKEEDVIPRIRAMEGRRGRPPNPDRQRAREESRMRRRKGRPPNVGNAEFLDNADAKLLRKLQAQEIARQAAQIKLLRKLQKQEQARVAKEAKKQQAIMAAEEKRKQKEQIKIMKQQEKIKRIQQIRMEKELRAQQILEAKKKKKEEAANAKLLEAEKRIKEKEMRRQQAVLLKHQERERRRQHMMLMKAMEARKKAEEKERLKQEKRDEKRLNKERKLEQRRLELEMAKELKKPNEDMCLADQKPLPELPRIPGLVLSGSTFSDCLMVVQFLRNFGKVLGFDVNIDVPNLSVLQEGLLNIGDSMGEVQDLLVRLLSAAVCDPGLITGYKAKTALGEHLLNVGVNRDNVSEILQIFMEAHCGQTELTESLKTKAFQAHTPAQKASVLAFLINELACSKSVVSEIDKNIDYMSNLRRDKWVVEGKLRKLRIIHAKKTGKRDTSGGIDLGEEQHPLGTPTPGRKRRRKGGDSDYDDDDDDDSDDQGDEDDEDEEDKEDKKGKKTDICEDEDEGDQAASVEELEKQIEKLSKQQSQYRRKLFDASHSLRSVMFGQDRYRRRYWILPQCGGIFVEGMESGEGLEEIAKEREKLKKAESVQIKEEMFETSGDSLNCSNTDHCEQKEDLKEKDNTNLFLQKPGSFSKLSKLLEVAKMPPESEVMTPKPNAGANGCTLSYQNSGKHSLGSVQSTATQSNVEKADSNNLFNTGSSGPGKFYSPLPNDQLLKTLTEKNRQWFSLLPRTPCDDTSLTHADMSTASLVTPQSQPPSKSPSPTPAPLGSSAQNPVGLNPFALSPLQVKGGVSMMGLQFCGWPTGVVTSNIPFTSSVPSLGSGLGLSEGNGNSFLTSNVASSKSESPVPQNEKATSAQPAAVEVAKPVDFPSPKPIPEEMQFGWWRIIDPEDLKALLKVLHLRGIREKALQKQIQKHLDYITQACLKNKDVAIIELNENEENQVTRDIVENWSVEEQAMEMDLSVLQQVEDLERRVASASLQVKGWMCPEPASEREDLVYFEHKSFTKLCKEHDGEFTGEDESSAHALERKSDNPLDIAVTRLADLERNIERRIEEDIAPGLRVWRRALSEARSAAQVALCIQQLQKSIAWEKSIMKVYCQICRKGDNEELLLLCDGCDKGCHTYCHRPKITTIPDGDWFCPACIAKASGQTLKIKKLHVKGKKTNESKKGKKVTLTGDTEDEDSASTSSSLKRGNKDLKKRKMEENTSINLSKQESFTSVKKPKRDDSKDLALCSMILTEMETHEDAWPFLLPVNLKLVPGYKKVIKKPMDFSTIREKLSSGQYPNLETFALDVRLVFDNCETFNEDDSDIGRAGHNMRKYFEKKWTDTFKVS
Protocol: as §1

BRPF3 = molecular target: T5, BRPF3 (Homo sapiens, UniProt Q9ULD4); assay: biochemical; set-up: thermal shift assay (real-time PCR machine), melting temperature shift of recombinant bromodomains at 2 uM protein
T5 construct: bromodomain
Protocol: as §1

SP140L = molecular target: T6, SP140L (Homo sapiens, UniProt Q9H930); assay: biochemical; set-up: thermal shift assay (real-time PCR machine), melting temperature shift of recombinant bromodomains at 2 uM protein
T6 construct: bromodomain
T6 sequence (Q9H930 whole entry): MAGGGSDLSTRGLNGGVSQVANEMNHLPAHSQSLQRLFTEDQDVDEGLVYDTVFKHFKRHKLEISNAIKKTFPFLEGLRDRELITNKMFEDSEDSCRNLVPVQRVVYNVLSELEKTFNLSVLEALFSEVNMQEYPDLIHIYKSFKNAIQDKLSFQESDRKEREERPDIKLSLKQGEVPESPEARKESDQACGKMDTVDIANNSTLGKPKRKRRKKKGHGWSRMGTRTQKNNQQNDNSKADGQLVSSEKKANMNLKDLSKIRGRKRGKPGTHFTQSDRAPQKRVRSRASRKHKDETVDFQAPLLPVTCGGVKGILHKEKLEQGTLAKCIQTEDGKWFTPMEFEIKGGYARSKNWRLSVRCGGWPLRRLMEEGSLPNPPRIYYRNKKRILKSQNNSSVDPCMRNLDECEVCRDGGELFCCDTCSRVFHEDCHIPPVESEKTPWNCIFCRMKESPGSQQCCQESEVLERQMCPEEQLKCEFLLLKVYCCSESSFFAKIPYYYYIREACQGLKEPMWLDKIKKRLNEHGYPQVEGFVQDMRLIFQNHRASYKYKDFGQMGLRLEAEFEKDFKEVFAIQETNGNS
Protocol: as §1

ATAD2B = molecular target: T7, ATAD2B (Homo sapiens, UniProt Q9ULI0); assay: biochemical; set-up: thermal shift assay (real-time PCR machine), melting temperature shift of recombinant bromodomains at 2 uM protein
T7 construct: bromodomain
Protocol: as §1

CREBBP = molecular target: T8, CREBBP (Homo sapiens, UniProt Q92793); assay: biochemical; set-up: thermal shift assay (real-time PCR machine), melting temperature shift of recombinant bromodomains at 2 uM protein
T8 construct: bromodomain
Protocol: as §1

WDR9(2) = molecular target: T9, WDR9(2) (Homo sapiens, UniProt Q9NSI6); assay: biochemical; set-up: thermal shift assay (real-time PCR machine), melting temperature shift of recombinant bromodomains at 2 uM protein
T9 construct: gene BRWD1; bromodomain 2
T9 sequence (Q9NSI6 whole entry): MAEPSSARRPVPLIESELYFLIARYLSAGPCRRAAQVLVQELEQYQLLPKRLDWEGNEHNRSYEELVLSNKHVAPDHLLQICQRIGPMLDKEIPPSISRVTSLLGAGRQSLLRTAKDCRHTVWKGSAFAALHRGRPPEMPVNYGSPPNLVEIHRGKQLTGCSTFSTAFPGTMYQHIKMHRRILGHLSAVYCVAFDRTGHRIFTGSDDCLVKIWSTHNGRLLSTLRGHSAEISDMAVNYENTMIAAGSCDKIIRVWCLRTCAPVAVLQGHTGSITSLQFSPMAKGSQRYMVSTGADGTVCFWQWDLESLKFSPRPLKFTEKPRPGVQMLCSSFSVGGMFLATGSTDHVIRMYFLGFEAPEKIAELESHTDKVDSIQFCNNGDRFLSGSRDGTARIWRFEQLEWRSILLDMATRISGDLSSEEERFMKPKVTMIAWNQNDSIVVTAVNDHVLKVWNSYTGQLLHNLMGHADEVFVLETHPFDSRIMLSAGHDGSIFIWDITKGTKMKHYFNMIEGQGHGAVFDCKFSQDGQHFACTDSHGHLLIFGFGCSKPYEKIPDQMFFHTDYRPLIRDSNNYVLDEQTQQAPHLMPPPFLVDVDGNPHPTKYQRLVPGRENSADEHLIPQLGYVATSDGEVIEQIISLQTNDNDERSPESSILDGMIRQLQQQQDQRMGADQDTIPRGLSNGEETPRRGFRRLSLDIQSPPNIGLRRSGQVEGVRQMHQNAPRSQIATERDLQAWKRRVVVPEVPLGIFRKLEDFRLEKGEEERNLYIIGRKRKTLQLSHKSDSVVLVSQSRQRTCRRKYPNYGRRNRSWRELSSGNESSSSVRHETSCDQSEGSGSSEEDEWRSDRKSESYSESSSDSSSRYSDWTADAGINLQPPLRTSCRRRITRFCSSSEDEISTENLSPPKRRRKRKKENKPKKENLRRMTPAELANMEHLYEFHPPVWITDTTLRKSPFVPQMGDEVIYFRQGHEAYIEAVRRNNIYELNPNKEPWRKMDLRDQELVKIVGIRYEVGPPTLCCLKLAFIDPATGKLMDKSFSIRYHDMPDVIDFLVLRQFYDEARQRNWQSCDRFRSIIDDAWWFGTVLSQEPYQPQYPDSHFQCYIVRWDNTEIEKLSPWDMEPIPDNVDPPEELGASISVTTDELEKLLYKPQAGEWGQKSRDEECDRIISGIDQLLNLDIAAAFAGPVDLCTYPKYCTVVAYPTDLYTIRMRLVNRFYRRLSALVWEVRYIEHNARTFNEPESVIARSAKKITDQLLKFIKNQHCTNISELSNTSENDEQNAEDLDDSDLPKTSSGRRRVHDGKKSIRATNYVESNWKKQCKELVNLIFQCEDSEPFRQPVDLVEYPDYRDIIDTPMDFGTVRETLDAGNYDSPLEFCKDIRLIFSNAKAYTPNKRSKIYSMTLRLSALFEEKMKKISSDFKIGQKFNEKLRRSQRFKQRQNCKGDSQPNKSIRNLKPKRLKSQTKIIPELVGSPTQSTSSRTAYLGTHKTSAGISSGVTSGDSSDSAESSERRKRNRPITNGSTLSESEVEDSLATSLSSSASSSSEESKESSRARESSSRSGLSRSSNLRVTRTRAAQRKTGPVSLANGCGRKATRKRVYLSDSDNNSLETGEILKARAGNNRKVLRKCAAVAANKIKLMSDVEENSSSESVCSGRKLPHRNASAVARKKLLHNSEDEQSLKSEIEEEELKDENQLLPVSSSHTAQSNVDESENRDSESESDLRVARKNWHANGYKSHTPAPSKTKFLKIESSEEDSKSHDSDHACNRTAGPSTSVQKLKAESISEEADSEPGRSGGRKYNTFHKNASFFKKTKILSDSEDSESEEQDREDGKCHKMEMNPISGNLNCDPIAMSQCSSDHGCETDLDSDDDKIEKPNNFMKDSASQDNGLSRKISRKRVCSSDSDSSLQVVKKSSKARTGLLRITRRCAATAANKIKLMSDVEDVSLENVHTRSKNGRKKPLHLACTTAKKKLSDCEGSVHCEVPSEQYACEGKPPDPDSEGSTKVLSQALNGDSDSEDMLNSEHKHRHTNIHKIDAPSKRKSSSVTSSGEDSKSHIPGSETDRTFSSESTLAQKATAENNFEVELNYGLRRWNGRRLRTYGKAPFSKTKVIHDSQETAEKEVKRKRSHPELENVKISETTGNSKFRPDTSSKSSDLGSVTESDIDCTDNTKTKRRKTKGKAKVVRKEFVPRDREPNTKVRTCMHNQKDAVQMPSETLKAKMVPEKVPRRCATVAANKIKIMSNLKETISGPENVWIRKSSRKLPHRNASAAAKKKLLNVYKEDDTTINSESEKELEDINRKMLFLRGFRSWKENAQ
Protocol: as §1

TIF1-phd-bromo = molecular target: T10, TIF1-phd-bromo (Homo sapiens, UniProt O15164); assay: biochemical; set-up: thermal shift assay (real-time PCR machine), melting temperature shift of recombinant bromodomains at 2 uM protein
T10 construct: gene TRIM24; PHD-bromodomain
Protocol: as §1

BRD3(1) = molecular target: T11, BRD3(1) (Homo sapiens, UniProt Q15059); assay: biochemical; set-up: thermal shift assay (real-time PCR machine), melting temperature shift of recombinant bromodomains at 2 uM protein
T11 construct: bromodomain 1
Protocol: as §1

SMARCA4 = molecular target: T12, SMARCA4 (Homo sapiens, UniProt P51532); assay: biochemical; set-up: thermal shift assay (real-time PCR machine), melting temperature shift of recombinant bromodomains at 2 uM protein
T12 construct: bromodomain
Protocol: as §1

FALZ = molecular target: T13, FALZ (Homo sapiens, UniProt Q12830); assay: biochemical; set-up: thermal shift assay (real-time PCR machine), melting temperature shift of recombinant bromodomains at 2 uM protein
T13 construct: gene BPTF; bromodomain
Protocol: as §1

PB1(1) = molecular target: T14, PB1(1) (Homo sapiens, UniProt Q86U86); assay: biochemical; set-up: thermal shift assay (real-time PCR machine), melting temperature shift of recombinant bromodomains at 2 uM protein
T14 construct: gene PBRM1; bromodomain 1
Protocol: as §1

[1] = molecular target: T15, BRD4(1), first bromodomain of BRD4 (Homo sapiens, UniProt O60885); assay: ITC; co-crystal structure at […] Å; type: binding
T15 construct: first bromodomain; BRD4_HUMAN O60884-1 fragment 44-168 (crystallography)

Molecule `Cc1noc(C)c1-c1ccc2c(c1)[C@H](c1ccccc1)N(C)C2=O` [PNZ5] has a ΔTm at 10 µM (BRDT(2)) of 8.81 °C, a ΔTm at 10 µM (SMARCA2) of -0.18 °C and a ΔTm at 10 µM (SP140) of 0.87 °C. For the same molecule, the ΔTm at 10 µM (BAZ2B) was 0.38 °C, the ΔTm at 10 µM (BRPF3) was 0.95 °C and the ΔTm at 10 µM (SP140L) was 1.05 °C. The ΔTm at 10 µM (ATAD2B) was 0.3 °C, the ΔTm at 10 µM (CREBBP) was 2.37 °C and the ΔTm at 10 µM (WDR9(2)) was 0.38 °C. The ΔTm at 10 µM (TIF1-phd-bromo) was 0.06 °C, the ΔTm at 10 µM (BRD3(1)) was 9.79 °C and the ΔTm at 10 µM (SMARCA4) was 0.04 °C. The ΔTm at 10 µM (FALZ) was 0.22 °C, the ΔTm at 10 µM (PB1(1)) was 0.79 °C and the Kd [1] was 5.43 nM.
